Test results reported in BindingDB's records for doi:10.1016/j.chembiol.2005.02.004 (Purdue University, 2005).
Numbered stars: 1 amine (or outer) side, 2 acyl side, 3 side chain; on linkers, the order of the positions; unused ones are H or OH. Bridge positions count the residues as written; N and C are the ends. Square brackets hold non-standard residues; d marks the D form. Peptide text beside a SMILES is read from it. I, II: the chains in the order shown. * marks the point of attachment. C16 diacid = O=C(O)CCCCCCCCCCCCCCC(=O)*; X1 = NC(O)C[C@H](N[*:1])C(=O)[*:2]

Experiments:
[1] = molecular target: T1, Capsid scaffolding protein (Human herpesvirus 1 (strain 17), UniProt P10210); assay: Zhang-Poorman Assay; settings: pH 5.52
T1 sequence (P10210 whole entry): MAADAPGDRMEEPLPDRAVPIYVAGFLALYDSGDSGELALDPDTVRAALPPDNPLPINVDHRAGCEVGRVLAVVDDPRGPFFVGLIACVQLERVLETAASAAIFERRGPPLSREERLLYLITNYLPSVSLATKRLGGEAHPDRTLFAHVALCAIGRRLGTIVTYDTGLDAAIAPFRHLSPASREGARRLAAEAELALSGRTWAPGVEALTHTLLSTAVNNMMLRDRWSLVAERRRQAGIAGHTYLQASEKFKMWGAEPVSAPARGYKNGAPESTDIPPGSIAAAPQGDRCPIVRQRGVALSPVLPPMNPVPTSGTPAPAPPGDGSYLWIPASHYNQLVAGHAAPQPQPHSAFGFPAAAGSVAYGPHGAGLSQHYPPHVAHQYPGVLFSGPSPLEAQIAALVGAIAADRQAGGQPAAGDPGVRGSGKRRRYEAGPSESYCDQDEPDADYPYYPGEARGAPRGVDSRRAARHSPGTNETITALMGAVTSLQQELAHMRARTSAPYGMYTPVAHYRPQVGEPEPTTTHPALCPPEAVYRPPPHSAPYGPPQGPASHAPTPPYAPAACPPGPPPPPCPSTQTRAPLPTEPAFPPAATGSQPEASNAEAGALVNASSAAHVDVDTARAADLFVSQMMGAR

[2] = molecular target: T1, Capsid scaffolding protein; assay: Competitive Assay; settings: pH 5.52
Text: The competitive assay requires two inhibitors to act by a purely competitive mechanism, whereas the binding site of on the inhibitors has been established.

| SMILES | IC50 [1] [nM] | Ki [1] [nM] | IC50 [2] [nM] | Ki [2] [nM] |
| --- | --- | --- | --- | --- |
| COc1ccc(CCNC(=O)[C@@H](CC(C)C)NC(=O)[C@H](NC(=O)CCCCCCCCCCCCCCC(=O)N[C@H](CC(N)=O)C(=O)N[C@@H](Cc2ccccc2)C(=O)O)C(C)O)cc1 (stereo partly specified) [Pepstatin analog, 7] | 2700 | 720 | – | – |
| CC(C)C[C@H](NC(=O)[C@@H](NC(=O)CCCCCCCCCCCCCCC(=O)N[C@H](CC(N)=O)C(=O)N[C@H](Cc1ccccc1)C(=O)O)C(C)O)C(=O)N[C@@H](Cc1ccccc1)C(N)=O (stereo partly specified) [Pepstatin analog, 2] | – | – | 5900 | 3000 |
| CC(C)C[C@@H](NC(=O)[C@H](NC(=O)CCCCCCCCCCCCCCC(=O)N[C@H](CC(N)=O)C(=O)N[C@@H](Cc1ccccc1)C(=O)O)C(C)O)C(=O)NCCc1ccc(Oc2ccc(O)cc2)cc1 (stereo partly specified) [Pepstatin analog, 12] | 360 | 96 | – | – |
| CC(C)C[C@@H](NC(=O)[C@H](NC(=O)CCCCCCCCCCCCCCC(=O)N[C@H](CC(N)=O)C(=O)N[C@@H](Cc1ccccc1)C(=O)O)C(C)O)C(=O)NCCc1ccc(O)cc1 (stereo partly specified) [Pepstatin analog, 6] | 5800 | – | – | – |
| CC(C)C[C@H](NC(=O)[C@@H](NC(=O)CCCCCCCCCCCCCCC(=O)N[C@H](CC(N)=O)C(=O)N[C@@H](Cc1ccccc1)C(=O)O)C(C)O)C(=O)NCCc1ccccc1 (stereo partly specified) [Pepstatin analog, 3] | – | – | 5800 | – |
| CC[C@H](C)[C@H](NC(=O)[C@H](CCC(N)=O)NC(=O)[C@@H]1CCCN1C(=O)CCCCCCCCCCCCCCC(=O)N[C@@H](CO)C(=O)N[C@H](C(=O)N[C@H](C(=O)N[C@@H](CC(N)O)C(=O)N[C@@H](Cc1ccccc1)C(=O)O)C(C)C)[C@@H](C)O)C(=O)N[C@H](C(=O)N[C@@H](CC(C)C)C(=O)N[C@@H](Cc1c[nH]c2ccccc12)C(=O)O)[C@@H](C)O (stereo partly specified) [Pepstatin analog, 1] (I: PQITLW-OH / II: STV[X1]F-OH; linker I:N-II:N via C16 diacid) | – | – | 350 | 220 |
| CC(C)C[C@@H](NC(=O)[C@H](NC(=O)CCCCCCCCCCCCCCC(=O)N[C@H](CC(N)=O)C(=O)N[C@@H](Cc1ccccc1)C(=O)O)C(C)O)C(=O)NCCc1ccc(Oc2ccccc2)cc1 (stereo partly specified) [Pepstatin analog, 11] | 730 | 175 | – | – |
| COc1cccc(CCNC(=O)[C@@H](CC(C)C)NC(=O)[C@H](NC(=O)CCCCCCCCCCCCCCC(=O)N[C@H](CC(N)=O)C(=O)N[C@@H](Cc2ccccc2)C(=O)O)C(C)O)c1 (stereo partly specified) [Pepstatin analog, 5] | – | – | 4900 | 1290 |
| COc1ccc(CCNC(=O)[C@@H](CC(C)C)NC(=O)[C@H](NC(=O)CCCCCCCCCCCCCCC(=O)N[C@H](CC(N)=O)C(=O)N[C@@H](Cc2ccccc2)C(=O)O)C(C)O)cc1OC (stereo partly specified) [Pepstatin analog, 9] | 4300 | – | – | – |
| CC(C)C[C@@H](NC(=O)[C@H](NC(=O)CCCCCCCCCCCCCCC(=O)N[C@H](CC(N)=O)C(=O)N[C@@H](Cc1ccccc1)C(=O)O)C(C)O)C(=O)NCCc1ccc(O)c(O)c1 (stereo partly specified) [Pepstatin analog, 8] | 2900 | 600 | – | – |
| CC(C)C[C@@H](NC(=O)[C@H](NC(=O)CCCCCCCCCCCCCCC(=O)N[C@H](CC(N)=O)C(=O)N[C@@H](Cc1ccccc1)C(=O)O)C(C)O)C(=O)NCCc1ccc(N)cc1 (stereo partly specified) [Pepstatin analog, 10] | 2500 | 650 | – | – |
| CC(C)C[C@@H](NC(=O)[C@H](NC(=O)CCCCCCCCCCCCCCC(=O)N[C@H](CC(N)=O)C(=O)N[C@@H](Cc1ccccc1)C(=O)O)C(C)O)C(=O)NCCc1cccc(O)c1 (stereo partly specified) [Pepstatin analog, 4] | – | – | 4400 | 1130 |
